Test results from patent US9376466B2, “Peptide inhibitors of caspase 2 activation” (The Trustees of Columbia University in the city of New York, priority 2011, dated 2016).
“Also recorded” adds a separate entry of the source.

Experiments:
Type in all cases: cell-based, rat
[1] = system: primary hippocampal neurons; test: Cell survival assay, primary hippocampal neurons treated with Aβ1-42; conditions: AFDAFC-Pen1 final concentration 80 nM, survival quantified after 1 day, n=3, FIG. 7
Procedure: Peptide Preparation: AFDAFC (SEQ ID NO: 1) was synthesized by Multiple Peptide Systems (San Diego, Calif.). Lyophilized peptide was resuspended in sterile ddH2O and linked in equimolar amounts with Pen1 (Troy et al. Proc. Natl. Acad. Sci. U.S.A. 93: 5635-5640 (1996)) for a stock concentration of 80 μM. AFDAFC-Pen1 was used at a final concentration of 80 nM.
Embryonic day 18 rat fetuses were removed from CO2-sacrificed pregnant Sprague Dawley rats (Charles River). The hippocampus was dissected out from surrounding tissue and the meninges completely removed. Pooled tissue was mechanically dissociated in a serum-free defined medium. […]
Cell Survival Assay. Hippocampal or sympathetic neuron survival was scored as previously reported (Troy et al., J Neurosci. 17:1911-8, 1997). […] Intact nuclei were quantified using a hemacytometer. Triplicate wells were scored and values reported as mean±SEM. Significance was calculated by Student's t-test. For sympathethic neurons, each culture was scored as numbers of living, phase-bright neurons counted in the same field at various times. Three replicate cultures were assessed for each condition, and data are normalized to numbers of neurons present in each culture at the time of Aβ1-42 addition or NGF deprivation and reported as mean±SEM.

[2] = system: Caspase 2 bound to endogenous RAIDD; test: Caspase 2 and RAIDD co-immunoprecipitation in primary hippocampal neurons; conditions: primary hippocampal neurons treated with AFDAFC-Pen1 prior to Aβ1-42; Western blot; FIG. 13
Procedure: Caspase 2 and RAIDD Co-Immunoprecipitation (IP). Mouse IgG magnetized beads (Invitrogen) were pre-coated with a RAIDD antibody (anti-CRADD; Abnova) for 2 hrs at 4° C. on a rotator. 2 μg of antibody was used per 30 μl of beads. Primary rat hippocampal neurons were treated with Aβ1-42 (3 μM) for 1 or 2 hrs. Cell lysates were prepared using CHAPS lysis buffer. 70-120 μg of lysates were loaded onto anti-CRADD pre-coated beads and incubated overnight at 4° C. on a rotator. Following the overnight incubation, the captured proteins were boiled off the beads at 100° C. for 5 mins. The immunoprecipitated samples, along with inputs, were then subjected to Western blotting using affinity purified polyclonal anti-Caspase 2.

[3] = system: Bim; test: Western blot of Bim protein in hippocampal neuron cultures; conditions: primary hippocampal neurons treated with AFDAFC-Pen1 prior to Aβ1-42; FIG. 14
Procedure: Cell Culture of primary hippocampal neuron cultures. Neurons were cultured as previously described (Akpan et al., J Neurosci. 31:8894-904, 2011). Briefly, embryonic day 18 rat fetuses were removed from CO2-sacrificed pregnant Sprague Dawley rats (Charles River). The hippocampus was dissected from surrounding tissue and the meninges removed. Pooled hippocampi were mechanically dissociated in a serum-free defined medium. Medium consisted of a 1:1 mixture of Eagle's MEM and Ham's F12 (Invitrogen) supplemented with glucose (6 mg/ml), insulin (25 μg/ml), selenium (30 nM), progesterone (20 nM), transferrin (100 μg/ml), putrescine (60 μg/ml), penicillin (0.5 U/ml), and streptomycin (0.5 μg/ml). Dissociated cells were grown on poly-D-lysine coated plates or 8-well chamber slides. Neurons were cultured for 7 days prior to experimental treatments.
Western Blot. Hippocampal neurons or sympathetic neurons were lysed in CHAPS lysis buffer ([…], 50 mM HEPES, 0.1% CHAPS, protease inhibitor tablet, pH 7.4). Protein concentration was determined using BioRad protein assay reagent (Bio-Rad). Equal amounts of protein were loaded onto 10% or 12% polyacrylamide gels. […] Proteins were detected using either enhanced chemiluminescence (Thermo Scientific) or fluorescence using the Odyssey infrared imaging system (LI-COR Biosciences). The relative densities of immunopositive bands were analyzed using ImageJ.

Substance: AFDAFC-Pen1: Caspase 2 activation inhibitory peptide AFDAFC (SEQ ID NO: 1) conjugated to cell-penetrating peptide Pen1 (RQIKIWFQNRRMKWKK)
- Aβ-mediated cell death (survival) [1]: abrogates Aβ-mediated cell death
- Aβ1-42-induced binding of Caspase 2 to RAIDD [2]: reduces Aβ1-42-induced binding of Caspase 2 to RAIDD
- Bim induction elicited by Aβ1-42 (protein level) [3]: preventing Bim induction; also recorded: prevents Bim induction
